Data: ChEMBL document CHEMBL1201862, “PubChem BioAssay data set” (2004)
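Grown in 96-well plates, cells were treated for 48 hours with each compound at five concentrations. Insufficient inhibition: endpoint recorded as highest concentration tested. GI50 is the concentration that inhibits growth by half.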 Activity calls are given as the source filed them. Cut-off read from the data, not from the text of the source: active = GI50 up to about 1.1 µM and inactive = higher.

How the values were obtained:
Experiment in all cases: inhibition of tumour cell growth, NCI panel, 48 h
A498 = test system: A498
COLO 205 = test system: COLO 205
EKVX = test system: EKVX
HL-60 = test system: HL-60
HOP-62 = test system: HOP-62
IGROV-1 = test system: IGROV-1
LOX IMVI = test system: LOX IMVI
M14 = test system: M14
MDA-MB-435 = test system: MDA-MB-435
NCI-H460 = test system: NCI-H460
OVCAR-3 = test system: OVCAR-3
OVCAR-4 = test system: OVCAR-4
PC-3 = test system: PC-3
SF-268 = test system: SF-268
SK-MEL-28 = test system: SK-MEL-28
SK-MEL-2 = test system: SK-MEL-2
SK-OV-3 = test system: SK-OV-3
SN12C = test system: SN12C
SNB-19 = test system: SNB-19
CCRF-CEM = test system: CCRF-CEM

| SMILES | GI50 (A498) | GI50 (COLO 205) | GI50 (EKVX) | GI50 (HL-60) | GI50 (HOP-62) | GI50 (IGROV-1) | GI50 (LOX IMVI) | GI50 (M14) | GI50 (MDA-MB-435) | GI50 (NCI-H460) | GI50 (OVCAR-3) | GI50 (OVCAR-4) | GI50 (PC-3) | GI50 (SF-268) | GI50 (SK-MEL-28) | GI50 (SK-MEL-2) | GI50 (SK-OV-3) | GI50 (SN12C) | GI50 (SNB-19) | GI50 (CCRF-CEM) |
| --- | --- | --- | --- | --- | --- | --- | --- | --- | --- | --- | --- | --- | --- | --- | --- | --- | --- | --- | --- | --- |
| Nc1ccccc1C(=O)NC(=O)Nc1ccc(Oc2ncc(Br)cn2)c(Cl)c1 | < 0.01 µM (active) | < 0.01 µM (active) | 0.247 µM (active) | < 0.01 µM (active) | 0.0109 µM (active) | < 0.0118 µM (active) | < 0.01 µM (active) | 0.0152 µM (active) | < 0.01 µM (active) | < 0.01 µM (active) | < 0.01 µM (active) | 0.698 µM (active) | < 0.01 µM (active) | < 0.01 µM (active) | < 0.01 µM (active) | < 0.0929 µM (active) | < 0.01 µM (active) | 0.0133 µM (active) | 0.0247 µM (active) | – |
| Cc1cc2ccccc2c[n+]1CC(=O)CC([O-])(C(F)(F)F)C(F)(F)F | 36.1 µM (inactive) | > 100 µM (inactive) | > 100 µM (inactive) | > 100 µM (inactive) | > 100 µM (inactive) | 41.3 µM (inactive) | > 100 µM (inactive) | > 100 µM (inactive) | > 100 µM (inactive) | > 100 µM (inactive) | 53.2 µM (inactive) | > 100 µM (inactive) | > 100 µM (inactive) | > 100 µM (inactive) | > 100 µM (inactive) | > 100 µM (inactive) | > 100 µM (inactive) | > 100 µM (inactive) | > 100 µM (inactive) | 90.8 µM (inactive) |
| O=[N+]([O-])c1ccc(-c2cc(O)c3nc4ccccc4n3c2)cc1 | > 100 µM (inactive) | > 100 µM (inactive) | > 100 µM (inactive) | > 100 µM (inactive) | 28.6 µM (inactive) | > 100 µM (inactive) | > 100 µM (inactive) | > 100 µM (inactive) | > 31.6 µM (inactive) | > 100 µM (inactive) | > 100 µM (inactive) | > 100 µM (inactive) | > 100 µM (inactive) | > 56.5 µM (inactive) | > 100 µM (inactive) | > 100 µM (inactive) | 22.8 µM (inactive) | > 100 µM (inactive) | > 53.7 µM (inactive) | > 100 µM (inactive) |
| COc1cc2c(/C=C3/C(=O)N(C)c4ccccc43)c(Cl)[nH]c2cc1C | 3.19 µM (inactive) | 0.216 µM (active) | 0.641 µM (active) | 0.069 µM (active) | 0.286 µM (active) | 0.167 µM (active) | 0.3 µM (active) | 0.195 µM (active) | 0.0277 µM (active) | 0.295 µM (active) | 0.116 µM (active) | 0.0906 µM (active) | 0.29 µM (active) | 0.207 µM (active) | 8.38 µM (inactive) | 0.325 µM (active) | 0.184 µM (active) | 0.471 µM (active) | 0.253 µM (active) | 0.303 µM (active) |
| C1OCN2c3nonc3N3COCN4c5nonc5N1C2C43 (centres undefined) | > 100 µM (inactive) | 40.3 µM (inactive) | > 100 µM (inactive) | 83.4 µM (inactive) | – | > 100 µM (inactive) | – | > 100 µM (inactive) | > 100 µM (inactive) | > 100 µM (inactive) | > 100 µM (inactive) | > 100 µM (inactive) | > 100 µM (inactive) | > 100 µM (inactive) | > 100 µM (inactive) | > 100 µM (inactive) | > 100 µM (inactive) | > 100 µM (inactive) | > 100 µM (inactive) | 77.8 µM (inactive) |
| CCCCCCCCCC(=O)CC(=O)c1c(O)cc(O)cc1O | 22.6 µM (inactive) | 26.6 µM (inactive) | 31.5 µM (inactive) | 17.9 µM (inactive) | 13.6 µM (inactive) | 26.5 µM (inactive) | 17.4 µM (inactive) | 17.1 µM (inactive) | 16.9 µM (inactive) | – | 16.4 µM (inactive) | 16.3 µM (inactive) | 17.9 µM (inactive) | 18.4 µM (inactive) | 23.3 µM (inactive) | 17.7 µM (inactive) | 35 µM (inactive) | 20.6 µM (inactive) | 22.6 µM (inactive) | 34.3 µM (inactive) |
| N=C(N)Nc1ccc(CC(N)NCC(=O)O)cc1 (centres undefined) | > 25 µM (inactive) | > 25 µM (inactive) | > 25 µM (inactive) | > 25 µM (inactive) | > 25 µM (inactive) | > 25 µM (inactive) | > 25 µM (inactive) | > 25 µM (inactive) | > 25 µM (inactive) | – | > 25 µM (inactive) | > 25 µM (inactive) | > 25 µM (inactive) | > 25 µM (inactive) | > 25 µM (inactive) | > 25 µM (inactive) | > 25 µM (inactive) | > 25 µM (inactive) | – | > 25 µM (inactive) |
| C[C@]12CC[C@H]3[C@@H](CCC4=CC(=O)CC[C@@]43C)[C@]1(O)CC[C@]2(O)C(=O)CO | > 100 µM (inactive) | > 100 µM (inactive) | > 100 µM (inactive) | > 100 µM (inactive) | > 100 µM (inactive) | > 100 µM (inactive) | > 100 µM (inactive) | > 100 µM (inactive) | > 100 µM (inactive) | > 100 µM (inactive) | > 100 µM (inactive) | > 100 µM (inactive) | > 100 µM (inactive) | > 100 µM (inactive) | > 100 µM (inactive) | > 100 µM (inactive) | > 100 µM (inactive) | > 100 µM (inactive) | > 100 µM (inactive) | > 100 µM (inactive) |
| CC(=O)Nc1ccc(N2C(=O)/C(=C\c3cccc(Oc4ccccc4)c3)S(=O)(=O)C2c2ccccc2)cc1 (centres undefined) | > 100 µM (inactive) | > 100 µM (inactive) | > 100 µM (inactive) | 30.3 µM (inactive) | > 100 µM (inactive) | 51.2 µM (inactive) | 41 µM (inactive) | 67 µM (inactive) | 60.8 µM (inactive) | > 100 µM (inactive) | 49.4 µM (inactive) | 37.8 µM (inactive) | 61.1 µM (inactive) | – | 91 µM (inactive) | > 100 µM (inactive) | > 100 µM (inactive) | 46.5 µM (inactive) | 90.2 µM (inactive) | 27.7 µM (inactive) |
| CCCNc1ncnc2c1ncn2C | 22.9 µM (inactive) | 96.4 µM (inactive) | > 100 µM (inactive) | 32.9 µM (inactive) | 35.2 µM (inactive) | 54.7 µM (inactive) | 31 µM (inactive) | 58.5 µM (inactive) | > 100 µM (inactive) | – | 58.5 µM (inactive) | > 100 µM (inactive) | > 100 µM (inactive) | – | > 100 µM (inactive) | > 100 µM (inactive) | > 100 µM (inactive) | 27.4 µM (inactive) | > 100 µM (inactive) | 22.1 µM (inactive) |
| Cc1cn(C2CC(N=[N+]=[N-])C(CO[Si](C)(C)C(C)(C)C)O2)c(=O)[nH]c1=O (centres undefined) | 16.1 µM (inactive) | 17.5 µM (inactive) | 23.5 µM (inactive) | 28.7 µM (inactive) | 16.4 µM (inactive) | 18.7 µM (inactive) | 16.9 µM (inactive) | 21.4 µM (inactive) | 18 µM (inactive) | – | 16.9 µM (inactive) | 14.2 µM (inactive) | 15.7 µM (inactive) | 19.5 µM (inactive) | – | 15.2 µM (inactive) | 18.4 µM (inactive) | 15.6 µM (inactive) | 19.8 µM (inactive) | 24.5 µM (inactive) |
| O=C(NNCC(O)COc1ccccc1)c1ccccc1 (centres undefined) | > 100 µM (inactive) | > 100 µM (inactive) | > 100 µM (inactive) | > 100 µM (inactive) | > 100 µM (inactive) | > 100 µM (inactive) | > 100 µM (inactive) | > 100 µM (inactive) | > 100 µM (inactive) | – | > 100 µM (inactive) | > 100 µM (inactive) | > 100 µM (inactive) | – | > 100 µM (inactive) | > 100 µM (inactive) | > 100 µM (inactive) | > 100 µM (inactive) | > 100 µM (inactive) | > 100 µM (inactive) |
| C=CCOc1ccc(C2C(C(=O)OCC)C(=O)CC(C)(O)C2C(=O)OCC)cc1OC (centres undefined) | > 100 µM (inactive) | > 100 µM (inactive) | > 100 µM (inactive) | > 100 µM (inactive) | > 100 µM (inactive) | > 100 µM (inactive) | > 100 µM (inactive) | > 100 µM (inactive) | > 100 µM (inactive) | > 100 µM (inactive) | > 100 µM (inactive) | > 100 µM (inactive) | > 100 µM (inactive) | > 100 µM (inactive) | > 100 µM (inactive) | > 100 µM (inactive) | – | > 100 µM (inactive) | > 100 µM (inactive) | > 100 µM (inactive) |
| O=C1CC(=O)n2cnc3cccc(c32)N1 | > 100 µM (inactive) | > 100 µM (inactive) | > 100 µM (inactive) | > 100 µM (inactive) | > 100 µM (inactive) | > 100 µM (inactive) | – | > 100 µM (inactive) | > 100 µM (inactive) | > 100 µM (inactive) | > 100 µM (inactive) | > 100 µM (inactive) | > 100 µM (inactive) | > 100 µM (inactive) | > 100 µM (inactive) | > 100 µM (inactive) | > 100 µM (inactive) | > 100 µM (inactive) | > 100 µM (inactive) | > 100 µM (inactive) |
| CCOC(=O)CCC(C(=O)OCC)n1nc2ccc(Nc3c(C)[n+]([O-])c4cc(F)c(OCC)cc4[n+]3[O-])cc2n1 (centres undefined) | 52.4 µM (inactive) | > 100 µM (inactive) | 28.5 µM (inactive) | > 100 µM (inactive) | 17.5 µM (inactive) | 78.5 µM (inactive) | > 100 µM (inactive) | > 100 µM (inactive) | > 100 µM (inactive) | 29.3 µM (inactive) | > 100 µM (inactive) | 47.6 µM (inactive) | 37.2 µM (inactive) | 14 µM (inactive) | – | 50.2 µM (inactive) | 31.9 µM (inactive) | 91.2 µM (inactive) | 31.9 µM (inactive) | > 100 µM (inactive) |
